“And” between values parts separate entries of the source, which are not always exact repeats. Equal entries are not always repeated.
Tests used:
[1] = Fatty acids in plasma of patients with advanced glioma treated with 2OHOA sodium salt; assay type: in vivo, human; settings: for Time of peak plasma levels: first day
Procedure: FIG. 24. Analysis of composition in fatty acids in human patients with advanced glioma. (A) Representative chromatogram of the fatty acid composition of a patient with glioma responsive to treatment with 2OHOA sodium salt (12 g/day, 21 days) and determined in plasma samples obtained at different treatment times (0, 4 and 360 hours, 15 days) by gas chromatography. […] The C17:0 margaric acid in the chromatograms was quantified as internal control.
Plasma samples were obtained at different times (0, 2, 4, 6, 8 hours and after 8, 15, 21 and 28 days after treatment with 2OHOA) and were subsequently given for fatty acid analysis using the gas chromatography technique.

[2] = Fatty acids in rat plasma after oral 2OHOA sodium salt (gas chromatography); assay type: in vivo; settings: for Maximum plasma concentration: 2 hours after oral 2OHOA sodium salt 2 g/Kg; for Maximum plasma concentration / Time of maximum plasma concentration: acute treatment
Procedure: FIG. 20. […] Statistical significance is determined with a Wilcoxon test (*p<0.05 and **p<0.01 with respect to baseline levels at 0 hours; $p<0.05 and $$p<0.01 with respect to 2OHOA fatty acid levels).
FIG. 21. […] Statistical significance is determined by a Wilcoxon test (*p<0.05 and **p<0.01 with respect to baseline levels at 0 hours; $p<0.05 and $$p<0.01 with respect to 2OHOA fatty acid levels).
For the present study, 2 g of 2OHOA/Kg sodium salt was administered to rats 12-14 weeks of age orally for 15 days. Subsequently, plasma samples were extracted at different times (0, 1, 2, 3, 4, 6, 8 and 24 h) from day 1 (acute treatment) and 15 (chronic treatment). Finally, the fatty acid profile in plasma samples was analyzed by gas chromatography.

SF-295 = assay: Cell survival by trypan blue vital exclusion staining, 2OHOA and oxythiamine; assay type: cell-based, human
Procedure: FIG. 18. Effect of metabolite C17:1n-9 on the action of 2OHOA. […] Cell viability was determined by vital exclusion staining with trypan blue.
(§1) To study whether the metabolite C17:1n-9 can participate in the action of 2OHOA, the effect of pre-incubation with oxythiamine on cell survival and 2OHOA-regulated proteins was studied. To do this, the cell survival of different glioma and non-tumor cell lines treated with 2OHOA (400 μM, 72 hours) and pre-incubated or not with 2 mM […] (90 minutes) was analyzed by counting the cells with the vital exclusion stain with trypan blue. In addition, Western-blot 2OHOA-modulated proteins were studied. In glioma cells, a significant decrease in cell survival was observed after incubation with 2 mM oxythiamine for 72 hours.

SF-295 glioma cells [3] = assay: Cell viability by violet crystal staining, 72 hours; assay type: cell-based, human; settings: for IC50: SF-295, 72 hours
Procedure: FIG. 14. Effect of 2OHOA sodium salt, OA and C17:1n-9 sodium salt on cell viability and proliferation of glioma cells. […] Viability was determined by violet crystal staining.
(§2) In order to evaluate the antiproliferative effect of C17:1n-9, its IC50, which corresponds to the amount of a compound needed to reduce cell viability in vitro by 50%, as well as its effect on the regulation of proteins involved in the mechanism of action of 2OHOA, were determined. […] Upon completion of treatment, IC50 was determined by violet crystal staining technique. […] The IC50 of 2OHOA was 1000 μM for non-tumor cells, MRC-5 and astrocytes.

mouse astrocytes [4] = settings: 24 h, 400 μM
Description: (§4) Analysis of the composition of fatty acids in different glioma and non-tumor cell lines after treatment with 2OHOA sodium salt. […] The black bar corresponds to the concentration of each fatty acid in the control, and the white bar corresponds to the concentration of the fatty acid after treatment with 2OHOA sodium salt. C17:0 margaric acid is included as an internal control. The columns show the mean±SEM of three independent experiments expressed in nmoles and normalized per mg of protein. Statistical significance is determined with a Student's t-test (**p<0.01, ***p<0.001 with respect to the control).

[5] = tested on: BIP, CHOP, cJun phosphorylation, phosphorylation of Akt, cyclin D3; assay: Western Blot of proliferation and death markers in glioma and non-tumor cell lines; assay type: cell-based; settings: 200 μM C17:1n-9, 200 μM OA or 400 μM 2OHOA, 72 hours
Procedure: FIG. 16. Analysis of the effect of different fatty acids on markers of proliferation and death in different cell lines.
as §1

[6] = tested on: MRC-5 (human fibroblasts); settings: 24 h, 400 μM
Description: as §4

[7] = defined in preclinical studies; cited from earlier work
[8] = tested on: MRC-5 (human fibroblasts); assay: Cell viability by violet crystal staining, 72 hours; assay type: cell-based
Procedure: (§3) FIG. 15. Effect of 2OHOA sodium salt, C17:1n-9 sodium salt, and OA on cell viability and proliferation of non-tumor cells. Non-tumor cell viability curves (A1-A3) MRC-5 (human fibroblasts); and (B1-B3) mouse astrocytes treated with increasing doses of 2OHOA sodium salt (0-1000 μM) (A1 and B1); OA (0-300 μM) (A2 and B2); and C17:1n-9 sodium salt (0-300 μM) (A3 and B3) for 72 hours. Viability was determined by violet crystal staining.
as §2

mouse astrocytes [9] = assay: as above; assay type: cell-based; settings: Astrocyte, Astrocytes non-tumor cells
Procedure: as §3, §2

SF-295 glioma cells [10] = settings: human, 24 h, 400 μM
Description: as §4

[11] = tested on: MRC-5 (human fibroblasts); assay: Fatty acid composition by gas chromatography after treatment with 2OHOA; settings: MRC-5, 2OHOA 400 μM for 24 hours
Description: as §4

mouse astrocytes [12] = assay: as above; settings: 2OHOA 400 μM for 24 hours
Description: as §4

[13] = patients, 12 g/day 2OHOA sodium salt

CCCCCCCC/C=C\CCCCCCC(O)C(=O)O (stereo not shown) [2OHOA, 2-hydroxyoleic acid]
concentration at 4 h ([1]; human, plasma, oral, patients (responders and non-responders), 12 g/day 2OHOA sodium salt, read-out: Plasma level 4 hours after the first intake): 53.1 ± 6.52 µM | concentration at 8 h ([1]; human, plasma, oral, patients, 12 g/day 2OHOA sodium salt, read-out: Plasma level 8 hours after treatment): 25.4 ± 3.99 µM | concentration at 360 h ([1]; human, plasma, oral, patients, 12 g/day 2OHOA sodium salt, read-out: Plasma level after 15 days (360 hours) of treatment): 185 ± 25.6 µM | concentration at 192 h ([1]; human, plasma, oral, patients, 12 g/day 2OHOA sodium salt, read-out: Plasma level at 8 days of treatment (192 hours)): 25.4 ± 3.99 µM | Plasma level after 15 days (360 hours) of treatment [1, 13]: 141.10±16.35 nmol/ml plasma | Plasma level at 8 days of treatment (192 hours) [1, 13]: 25.39±3.99 nmol/ml plasma | Plasma level at 21 days of treatment [1, 13]: 184.70±25.60 nmol/ml plasma | Time of peak plasma levels [1, 13]: 4 h | Maximum plasma concentration [2]: 26.23±5.79 nmol/ml plasma | Time of maximum plasma concentration ([2]; oral 2OHOA sodium salt 2 g/Kg): 2 h | concentration at 8 h ([2]; plasma, oral 2OHOA sodium salt 2 g/Kg, read-out: Plasma level after 8 hours): 7.12 ± 1.56 µM | concentration at 0 h ([2]; plasma, oral 2OHOA sodium salt 2 g/Kg, read-out: Plasma level at 0 hours (initial levels, prior to administration)): 1.22 ± 0.33 µM | concentration at 24 h ([2]; plasma, oral 2OHOA sodium salt 2 g/Kg, read-out: Plasma level at 24 hours (trough values)): 2.8 ± 0.69 µM | Cell death (SF-295; SF-295, 2OHOA 400 μM, 72 hours): 23.97±1.25% | Cell death (SF-295; SF-295, 2OHOA combined with 2 mM oxythiamine): 10.85±0.58% | Recovery in cell viability (SF-295; SF-295, 2OHOA combined with 2 mM oxythiamine vs 2OHOA alone): 17.25% | IC50 (SF-295 glioma cells [3]; Homo sapiens): 399 ± 11.5 µM | IC50 of 2OHOA relative to that of metabolite C17:1n-9 (SF-295 glioma cells [3]; SF-295): 1.60 times | IC50 of 2OHOA relative to that of non-hydroxy analogue OA (SF-295 glioma cells [3]; SF-295): 1.56 times | 2OHOA accumulated more than its metabolite C17:1n-9 (mouse astrocytes [4]): 38.27% | Effect on signaling proteins (Western Blot) [5]: increased levels of BIP, CHOP and cJun phosphorylation and decreased phosphorylation of Akt and cyclin D3 levels | 2OHOA accumulated more than its metabolite C17:1n-9 [6]: 46% | Maximum tolerated dose [7]: 2000 mg/kg | IC50 ([8]; Homo sapiens, MRC5, MRC-5 non-tumor cells): > 1000 µM | IC50 (mouse astrocytes [9]): > 1000 µM | Level of the fatty acid in cells after treatment with 2OHOA (SF-295 glioma cells [10]): 9.21 nmol/mg

CCCCCCCC/C=C\CCCCCCC(=O)O [C17:1n-9, 8Z-heptadecenoic acid]
Plasma level 4 hours after the first intake ([1]; patients (responders and non-responders), 12 g/day 2OHOA sodium salt): 122.80±10.61 nmol/ml of plasma | C17:1n-9 plasma levels relative to 2OHOA ([1]; patients at 21 days of treatment): 1.90 times | C17:1n-9 plasma levels relative to 2OHOA ([1]; patients treated for 8 days): 3.66 times | C17:1n-9 plasma levels relative to 2OHOA ([1]; patients treated for 15 days): 2.20 times | Plasma level 8 hours after treatment [1, 13]: 92.89±9.39 nmol/ml of plasma | Plasma level at 21 days of treatment [1, 13]: 366.9±72.47 nmol/ml plasma | Time of peak plasma levels [1, 13]: 4 h | Maximum plasma concentration [2]: 60.47±6.53 nmol/ml plasma | Plasma level after 8 hours ([2]; oral 2OHOA sodium salt 2 g/Kg): 23.31±5.18 nmol/mL plasma | Plasma level at 0 hours (initial levels, prior to administration) ([2]; oral 2OHOA sodium salt 2 g/Kg): 8.45±2.52 nmol/ml plasma | Plasma level at 24 hours (trough values) ([2]; oral 2OHOA sodium salt 2 g/Kg): 14.03±2.20 nmol/ml plasma and 14.03±2.21 nmol/ml plasma | Time of maximum plasma concentration ([2]; oral 2OHOA sodium salt 2 g/Kg): 2 h | Level of the fatty acid in cells after treatment with 2OHOA [11]: 14.00 nmol/mg | IC50 (SF-295 glioma cells [3]): 249 ± 6.02 µM | Effect on signaling proteins (Western Blot) [5]: did not produce changes in any of these proteins | Level of the fatty acid in cells after treatment with 2OHOA (mouse astrocytes [12]): 7.58 ± 0.70 nmol/mg and 7.58 nmol/mg | IC50 ([8]; MRC-5 non-tumor cells): 248 ± 7.28 µM

From patent publication US20230097753A1, “ALPHA-HYDROXYLATED FATTY-ACID METABOLITES, MEDICAL USES AND USE AS BIOMARKERS” (UNIVERSITAT DE LES ILLES BALEARS, priority 2020, published 2023)
